Literature values as cited in patent publication US20090137653A1, “SUBSTITUTED BENZYLAMINES AS CYP2A INHIBITORS AND USES THEREOF TO TREAT NICOTINE DEPENDENCE” (INFLAYZME PHARMACEUTICALS LTD., priority 2005, published 2009).

What was measured:
CYP2A6 = CYP2A6 (Homo sapiens, UniProt P11509); conditions: read-out: CYP2A6 Ki; human liver microsomes
Sequence of CYP2A6 (P11509 whole entry): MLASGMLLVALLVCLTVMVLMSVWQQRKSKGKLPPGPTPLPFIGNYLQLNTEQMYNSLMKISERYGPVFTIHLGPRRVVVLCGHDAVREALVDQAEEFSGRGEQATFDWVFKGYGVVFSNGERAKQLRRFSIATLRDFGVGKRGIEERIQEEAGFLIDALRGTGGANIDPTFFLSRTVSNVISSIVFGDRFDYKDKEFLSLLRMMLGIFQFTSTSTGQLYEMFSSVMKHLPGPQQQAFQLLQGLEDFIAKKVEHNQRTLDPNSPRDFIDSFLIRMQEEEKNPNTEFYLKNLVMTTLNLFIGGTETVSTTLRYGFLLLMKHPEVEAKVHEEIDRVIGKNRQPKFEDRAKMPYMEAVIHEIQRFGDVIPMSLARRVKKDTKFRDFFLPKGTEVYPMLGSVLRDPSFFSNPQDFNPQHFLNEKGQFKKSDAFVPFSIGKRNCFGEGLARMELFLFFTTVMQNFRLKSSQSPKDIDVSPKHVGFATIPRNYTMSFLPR

| SMILES | half-life (in vivo) [h] | eliminated by first pass effect (taken orally, liver) | Ki (CYP2A6) [nM] |
| --- | --- | --- | --- |
| CN1CCCC1c1cccnc1 (stereo not drawn) [nicotine] | 1 to 2 | around 70% |  |
| N[C@@H]1C[C@H]1c1ccccc1 (racemic) [tranylcypromine] |  |  | 200 |
